Measured values reported in the Kinase Knowledgebase extract (Sharma et al. 2016).

Target: MAPK14 (human) (UniProt Q16539)
Assay: Inhibition of MAPK14 Kinase Activity
Settings: not given

Chain of MAPK14 (human) (Q16539 whole entry, looked up): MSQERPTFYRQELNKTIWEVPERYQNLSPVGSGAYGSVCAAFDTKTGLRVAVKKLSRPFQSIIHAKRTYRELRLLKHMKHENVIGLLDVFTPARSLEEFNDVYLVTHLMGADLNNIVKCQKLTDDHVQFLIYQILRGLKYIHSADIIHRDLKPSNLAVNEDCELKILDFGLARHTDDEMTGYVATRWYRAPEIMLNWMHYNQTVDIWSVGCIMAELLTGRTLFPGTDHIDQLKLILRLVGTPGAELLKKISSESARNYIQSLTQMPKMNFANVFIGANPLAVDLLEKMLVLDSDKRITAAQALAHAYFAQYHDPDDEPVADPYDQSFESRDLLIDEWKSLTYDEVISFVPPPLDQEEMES

Structure (SMILES) | IC50
CC(C)(C)c1cc(C(=O)N2CCNC(=O)C2(C)C)c(NC(=O)Nc2ccc(C#N)c(Cl)c2Cl)s1 | < 5 µM
CN(C)CCN1CCN(C(=O)c2cc(C(C)(C)C)sc2NC(=O)Nc2ccc(F)cc2Cl)CCC1=O | < 5 µM
CN1CCN(C(=O)c2cc(C(C)(C)C)sc2NC(=O)Nc2cccc(Cl)c2Cl)C(C)(C)C1=O | < 5 µM
Cn1c(C(C)(C)C)cc(NC(=O)Nc2cccc(Cl)c2Cl)c1C(=O)N1CCNC(=O)C1(C)C | < 5 µM
CC(C)(C)c1cc(C(=O)N2CCNC(=O)C2(C)C)c(NC(=O)Nc2cc(Cl)cc(Cl)c2)s1 | < 5 µM
CONC(=O)CN1CCN(C(=O)c2cc(C(C)(C)C)sc2NC(=O)Nc2cccc(Cl)c2Cl)C(C)(C)C1=O | < 5 µM
CNC(=O)[C@@H]1CCCN1C(=O)c1cc(C(C)(C)C)sc1NC(=O)Nc1ccc(OC(F)F)c(Cl)c1Cl | < 5 µM
CCC1(C)C(=O)N(CC(=O)N2CCN(C)CC2)CCN1C(=O)c1cc(C(C)(C)C)sc1NC(=O)Nc1cccc(Cl)c1Cl (centres undefined) | < 5 µM
COc1ccc(CC(=O)N2CCN(C(=O)c3cc(C(C)(C)C)sc3NC(=O)Nc3cccc(Cl)c3Cl)CC2)cc1 | < 5 µM
CC(C)(C)c1cc(C(=O)N2CCN(CC(=O)O)C(=O)C2(C)C)c(NC(=O)Nc2cccc(Cl)c2Cl)s1 | < 5 µM
CC(C)(C)c1cc(C(=O)N2CCNC(=O)C23CCC3)c(NC(=O)Nc2ccc(F)c(Cl)c2Cl)s1 | < 5 µM
CC(C)(C)c1cc(C(=O)N2CCNC(=O)CC2)c(NC(=O)Nc2ccc(C#N)c(Cl)c2Cl)s1 | < 5 µM
Cc1noc(CC2(C)C(=O)NCCN2C(=O)c2cc(C(C)(C)C)sc2NC(=O)Nc2ccc(F)c(Cl)c2Cl)n1 (centres undefined) | < 5 µM
CN(C)CCNC(=O)CN1CCN(C(=O)c2nc(C(C)(C)C)sc2NC(=O)Nc2cccc(Cl)c2Cl)C(C)(C)C1=O | < 5 µM
CN(C)CCN1CCN(C(=O)c2cc(C(C)(C)C)sc2NC(=O)Nc2cccnc2Cl)C(C)(C)C1=O | < 5 µM
CC(C)(C)c1cc(C(=O)N2CCNC(=O)C2(C)CCO)c(NC(=O)Nc2cccc(Cl)c2Cl)[nH]1 (centres undefined) | < 5 µM
CCC1(C)C(=O)NCCN1C(=O)c1cc(C(C)(C)C)sc1NC(=O)Nc1ccc(F)c(Cl)c1Cl (centres undefined) | < 5 µM
COCOCCN1CCN(C(=O)c2cc(C(C)(C)C)sc2NC(=O)Nc2cccc(Cl)c2Cl)C(C)(C)C1=O | < 5 µM
CC(C)(C)c1cc(NC(=O)Nc2ccc(F)c(Cl)c2Cl)c(C(=O)N2CCNC(=O)C2(C)CCO)s1 (centres undefined) | < 5 µM
CC(C)(C)c1cc(NC(=O)Nc2cccc(Cl)c2Cl)c(C(=O)N2CCNC(=O)CC2)[nH]1 | < 5 µM
CC(C)(C)c1cc(C(=O)N2CCNC(=O)CC2)c(NC(=O)Nc2cc(F)cc(F)c2)s1 | < 5 µM
CCC1(C)C(=O)N(CC(=O)NCCN(C)C)CCN1C(=O)c1cc(C(C)(C)C)sc1NC(=O)Nc1ccccc1C(F)(F)F (centres undefined) | < 5 µM
COC(=O)CC1(C)C(=O)NCCN1C(=O)c1cc(C(C)(C)C)[nH]c1NC(=O)Nc1cccc(Cl)c1Cl (centres undefined) | < 5 µM
CN(C)CCN1CCN(C(=O)c2cc(C(C)(C)C)sc2NC(=O)Nc2cccc(Cl)c2Cl)C(C)(C)C1=O | < 5 µM
CON(C)C(=O)CC1(C)C(=O)NCCN1C(=O)c1cc(C(C)(C)C)sc1NC(=O)Nc1ccc(F)c(Cl)c1Cl (centres undefined) | < 5 µM
COC(=O)CN1CCN(C(=O)c2cc(C(C)(C)C)sc2NC(=O)Nc2ccc(F)c(Cl)c2Cl)C(C)(C)C1=O | < 5 µM
CN(C)CCNC(=O)CN1CCN(C(=O)c2sc(C(C)(C)C)cc2NC(=O)Nc2ccc(F)c(Cl)c2Cl)C(C)(C)C1=O | < 5 µM

The next lines start with the values.

IC50 | Structure (SMILES)
< 5 µM | O=C(Nc1cc(C(F)(F)F)ccc1C(=O)N1CCS(=O)(=O)CC1)Nc1cccc(Cl)c1Cl
< 5 µM | CCC1(C)C(=O)N(CC(=O)NCCN(C)C)CCN1C(=O)c1cc(C(C)(C)C)sc1NC(=O)Nc1ccc(F)cc1Cl (centres undefined)
< 5 µM | Cc1cccc(NC(=O)Nc2sc(C(C)(C)C)cc2C(=O)N2CCC(=O)N(CCN(C)C)CC2)c1Cl
< 5 µM | COC(=O)CN1CCN(C(=O)c2nc(C(C)(C)C)sc2NC(=O)Nc2cccc(Cl)c2Cl)C(C)(C)C1=O
< 5 µM | CC(C)(C)c1cc(C(=O)N2CCNC(=O)[C@@H]2CCc2ccccc2)c(NC(=O)Nc2cccc(Cl)c2Cl)s1
< 5 µM | CC(C)(C)c1cc(C(=O)N2CCNC(=O)CC2)c(NC(=O)Nc2cccc(Cl)c2Cl)[nH]1
< 5 µM | CONC(=O)CN1CCN(C(=O)c2cc(C(C)(C)C)sc2NC(=O)Nc2cccc(Cl)c2Cl)C(C)(CC(=O)NOC)C1=O (centres undefined)
< 5 µM | CC(C)(C)c1cc(NC(=O)Nc2cccc(Cl)c2Cl)c(C(=O)N2CCNC(=O)C2(C)C)o1
< 5 µM | CN(C)CCNC(=O)CN1CCN(C(=O)c2cc(C(C)(C)C)sc2NC(=O)Nc2cccc(Cl)c2Cl)CC1
< 5 µM | COC(=O)CC1(C)C(=O)NCCN1C(=O)c1[nH]c(C(C)(C)C)cc1NC(=O)Nc1ccc(F)c(Cl)c1Cl (centres undefined)
< 5 µM | O=C(Nc1cc(C(F)(F)F)c(Cl)cc1C(=O)N1CCS(=O)(=O)CC1)Nc1cccc(Cl)c1Cl
< 5 µM | COC(=O)c1ccc(NC(=O)Nc2cc(C(C)(C)C)sc2C(=O)N2CCNC(=O)C2(C)C)c(Cl)c1
< 5 µM | CC(C)(C)c1cc(C(=O)N2CCNC(=O)C2(C)C)c(NC(=O)Nc2ccc3c(c2)OCO3)s1
< 5 µM | CCc1ccccc1NC(=O)Nc1sc(C(C)(C)C)cc1C(=O)N1CCC(=O)N(CCN(C)C)CC1
< 5 µM | CN(C)CCN1CCN(C(=O)c2sc(C(C)(C)C)cc2NC(=O)Nc2cccc(Cl)c2Cl)C(C)(C)C1=O
< 5 µM | CC(C)(C)c1cc(C(=O)N2CC(=O)NC(CO)C2)c(NC(=O)Nc2cccc(Cl)c2Cl)s1 (centres undefined)
< 5 µM | CNC(=O)CN1CCN(C(=O)c2cc(C(C)(C)C)sc2NC(=O)Nc2cccc(Cl)c2Cl)C(C)(C)C1=O
< 5 µM | CC(C)(C)c1cc(C(=O)N2CCNC(=O)C2(C)C)c(NC(=O)Nc2ccc(F)cc2Cl)s1
< 5 µM | CC(C)(C)c1cc(C(=O)N2CCNC(=O)C2(C)C)c(NC(=O)Nc2ccc(F)c(Cl)c2Cl)s1
< 5 µM | CC(C)(C)c1cc(C(=O)N2CCNC(=O)C2)c(NC(=O)Nc2cccc3c2OCO3)s1
< 5 µM | COC(=O)CN1CCN(C(=O)c2cc(C(C)(C)C)sc2NC(=O)Nc2cccc(Cl)c2Cl)C(C)(C)C1=O
< 5 µM | CON(C)C(=O)CN1CCN(C(=O)c2cc(C(C)(C)C)sc2NC(=O)Nc2ccc(F)cc2Cl)C(C)(C)C1=O
< 5 µM | CN(C)CCN1CCN(C(=O)c2cc(C(C)(C)C)sc2NC(=O)Nc2ccc(F)c(Cl)c2Cl)C(C)(C)C1=O

Same assay, conditions: concentration not given here

inhibition | Structure (SMILES)
76 to 100% | CC(C)(C)c1cc(C(=O)N[C@@H]2CC(=O)NC2=O)c(NC(=O)Nc2ccc3ccccc3c2)s1
76 to 100% | COCOCCN1CCN(C(=O)c2cc(C(C)(C)C)sc2NC(=O)Nc2cccc(Cl)c2Cl)CCC1=O
76 to 100% | CC(C)(C)c1cc(C(=O)N2CCNC(=O)C(N)C2)c(NC(=O)Nc2cccc(Cl)c2Cl)s1 (centres undefined)
26 to 50% | CC(C)(C)c1cc(C(=O)N2CCNS(=O)(=O)CC2)c(NC(=O)NC2(c3ccccc3)CC2)s1
76 to 100% | CC(C)(C)c1cc(C(=O)N2CCNC(=O)CC2)c(NC(=O)Nc2ccc3ncoc3c2)s1
76 to 100% | CC(C)(C)c1cc(C(=O)N2CCNC(=O)CC2)c(NC(=O)Nc2ccc(CN)c3ccccc23)s1
76 to 100% | CC(C)(C)c1cc(C(=O)N[C@@H]2CC(=O)NC2=O)c(NC(=O)Nc2ccc(Cl)cc2)s1
76 to 100% | Cc1cccc(NC(=O)Nc2sc(C(C)(C)C)cc2C(=O)N2CCNS(=O)(=O)CC2)c1
26 to 50% | CC(C)(C)c1cc(C(=O)N2CCNC(=O)CC2)c(NC(=O)Nc2cnc(O)c3ccccc23)s1
